In US20040242525A1, “Method for promoting gonadal growth in an animal” (Nagoya University, priority 2003, published 2004):
Entries after “also recorded” stand apart in the source; their conditions may differ.

Legend:
[1] = test system: Japanese quail testis (gonadal growth); test: intracerebroventricular infusion by osmotic mini pump, testicular growth under short-day condition; format: in vivo, Japanese quail (Coturnix coturnix japonica); settings: for testicular growth: i.c.v. infusion to third ventricle, several doses, short-day condition (light 8 hrs, dark 16 hrs), male Japanese quail
Procedure: (§1) To assess directly whether T3 mediates photoperiodic response of gonads, the inventors studied the effect of intracerebroventricular (i.c.v.) infusion of T3 on gonadal growth. Vehicle and several doses of T3 and T4 were infused to third ventricle by osmotic mini pump and testicular size was measured before and after the infusion. […] Therefore, the inventors furthermore examined the effect of IOP infusion under long-day condition (FIG. 10b).

[2] = test system: Japanese quail gonadotropin release and gonadal growth; settings: cited from earlier work; for photoperiodically induced gonadotropin secretion and gonadal growth: peripheral injection of pharmacological dose
[3] = test system: Japanese quail testis (gonadal growth); test: IOP infusion, testicular growth under long-day condition; format: in vivo, Japanese quail (Coturnix coturnix japonica); settings: long-day condition (p<0.05)
Procedure: as §1

[4] = cited from earlier work

Row | Structure (SMILES) | testicular growth [1] | testicular growth at the largest dose ([1]; i.c.v. infusion, largest dose, short-day condition) | dose giving the greatest effect ([1]; intracerebroventricular administration to Japanese quail) | photoperiodically induced gonadotropin secretion and gonadal growth [2] | testicular growth [3] | fraction of T4 converted to T3 in the blood [4] | fraction of T4 converted to reverse T3 (RT3) in the blood [4] | relative effectiveness to mimic gonadotropin release ([2]; peripheral injection)
1 | N[C@@H](Cc1cc(I)c(Oc2ccc(O)c(I)c2)c(I)c1)C(=O)O [T3, 3,5,3′-triiodothyronine] | mimics testicular growth with dose dependent manner | testicular growth was not observed | 0.3 ng per day | can mimic | – | – | – | –
2 | CCC(Cc1c(I)cc(I)c(N)c1I)C(=O)O (stereo not shown) [IOP, lopanoic acid] | – | – | – | – | can reduce testicular growth; also recorded: reduces testicular growth | – | – | –
3 | N[C@@H](Cc1cc(I)c(Oc2cc(I)c(O)c(I)c2)c(I)c1)C(=O)O [T4, Thyroxine] | little effect | – | – | can mimic | – | about ⅓ | ~45% | more effective than T3
